From article PMC9993459, “A novel selective spleen tyrosine kinase inhibitor SKI-O-703 (cevidoplenib) ameliorates lupus nephritis and serum-induced arthritis in murine models” (Clinical and Experimental Immunology, 2022) come the findings set out here.

Each structure is given as a SMILES string.

The target of data set [1] is KOR. The experiment in a line: Kinase assay (LANCE Ultra TR-FRET), KOR. It is filed as biochemical. The following applies: kinase activity, TR-FRET. How it is done:
Kinase assays were conducted in 384-well plates using LANCE ultra 66 time-resolved fluorescence resonance energy transfer (TR-FRET) methods, according to the manufacturer’s instructions (Perkin-Elmer). In brief, each kinase was pre-incubated with a serially diluted compound for 30 min, incubated with ULight poly-GT peptide substrate and ATP for up to 1 h. Thirty minutes after adding Eu-labeled anti-phosphopeptides Ab diluted in LANCE Detection Buffer, LANCE signals were measured with an EnVision multilabel reader (Perkin-Elmer).
(In TR-FRET formats the signal depends on donor and acceptor labels being close together.)

The subject of data set [2] is mouse primary B cells. The experiment in a line: CP670-dilution proliferation assay, BCR crosslinking (anti-IgM) stimulated B cells. In kind it is cell-based. The following applies: up to 1 μM. How it is done:
Splenic CD19^+ B cells from C57BL/6 mice were sorted by MACS (Milteny Biotec), stained with 3 μM cell proliferation dye eFluor 670 (CP670; eBioscience), and cultured for 72 h in the presence of either 10 μg/ml LPS (Sigma Aldrich) or 5 μg/ml anti-mouse IgM (Jackson Immuno Research Laboratories), 10 μg/ml anti-CD40 mAb (Biolegend) and 10 ng/ml IL-4 (Peprotech), and assayed by FACS. To detect apoptotic cells, unstimulated cells were cultured for 24 h, stained with Annexin V and 7-aminoactinomycin D (7-AAD), and assayed by FACS.
Figure 2: in vitro effects of SKI-O -703 on the proliferation, survival, and differentiation of B cells. Mouse primary B cells were labeled with CP670, and stimulated with either anti-IgM mAb, CD40L and IL-4 (A) or LPS (B) for 72 h in the presence or absence of SKI-O-703 and tofacitinib at the indicated concentrations; they were then assayed by FACS. (C and D) Mouse primary B cells were cultured as in A and B for 24 h, stained with Annexin V and 7-AAD, and assayed by FACS. Representative FACS profiles and graphs displaying mean Annexin V-positivity are shown. (E) Human primary B cells were stimulated with CpG ODN plus IL-2 (to detect IgM and IgG) or CpG ODN 2006 plus IFN-α (to detect IL-6) in the presence or absence of inhibitors. The culture supernatants were assayed by ELISA. Graphs are expressed as % positivity relative to the controls (without inhibitor). […]

For data set [3], the system named is NZB/W F1 mice. The experiment in a line: NZB/W mouse model of SLE / lupus nephritis, oral dosing. In kind it is in vivo. The following applies: 30 mpk oral once daily. The method, then:
NZB/W female mice aged 18 weeks were assigned to four groups by distributing mice by body weight and anti-dsDNA IgG titer equivalently across the groups. Each group of mice was administered orally with 42 mg per kg body weight (mpk) of SKI-O-703 dissolved in 50 mM citric acid, 84 mpk of SKI-O-703, 30 mpk of tofacitinib (Selleckchem) dissolved in 0.5% carboxymethyl cellulose (Sigma Aldrich) containing 0.025% Tween 20, or a mixture of the two vehicles. The drugs were given once daily up to 34 weeks of age. Body weight was measured every 2 weeks and serum was collected every 4 weeks. At the termination of the experiments (34 weeks of age), serum, urine, spleen, BM, and kidneys were removed post mortem and assayed by histopathological and biochemical methods as below. Levels of blood urea nitrogen (BUN) and creatinine were measured by Knotus (Incheon, Korea).
Kidneys removed from the NZB/W mice were fixed in 4% paraformaldehyde, embedded in paraffin, sectioned at 3 μm thickness, and stained with periodic acid-Schiff (PAS) and hematoxylin (Sigma Aldrich). […] Glomerular size was measured using Image J software. To assess the glomerular size and hypercellularity of each mouse, more than 20 glomeruli per mouse were individually examined and averaged.
Kidneys and spleens of NZB/W mice were embedded in OCT compound (Sakura Finetek, Torrance, CA, USA) and snap-frozen in liquid nitrogen. Frozen sections were fixed in acetone and blocked with 10% normal donkey serum (Sigma Aldrich). Kidney sections were stained with a 1:200 dilution of anti-IgG-biotin (Sigma Aldrich), anti-IgM-biotin (Southern Biotech) and anti-C3-biotin (Bioss), followed by reaction with 1:200-dilution of streptavidin-cy3 (Invitrogen). Spleen sections were stained with anti-GL7-FITC, anti-CD4-APC, and anti-IgD-PE (all from BD Biosciences or eBioscience). Fluorescence images were acquired using a TCS SP5 confocal microscope (Leica). The area of GCs composed with GL7^+ cells per image was calculated using ImageJ software (NIH, Bethesda, MD, USA).
Titers of anti-dsDNA IgG Ab were measured by ELISA, as described previously. In brief, sera were diluted 1/10 000 to 1/50 000 in PBS and applied to immunosorbent plates (Nunc) precoated with 5 μg/ml poly-L-lysine and 5 μg/ml thymic DNA (Sigma Aldrich). The serum containing the highest titer of anti-dsDNA IgG was serially diluted and used as standard. The plates were incubated with anti-mouse IgG-biotin (Sigma Aldrich) and streptavidin-HRP (BD Biosciences). The concentration of albumin in urine was measured by quantitative ELISA using a mouse albumin ELISA kit (Bethyl), according to the manufacturer’s instructions. The concentration of serum B-cell activating factor of the TNF family (BAFF) was quantitated using a BAFF/BLys/TNFSF13B ELISA Kit (R&D Systems).
Single-cell suspensions of spleen and LN cells were prepared as previously described. Joint tissues from hind paws of KSTA mice were dissected free of soft tissue and bones, digested with 100 μg/ml Liberase (Roche) for 45 min at 37 °C, and filtered through a 70-μm-pore cell strainer (SPL Life Sciences) to prepare single cell suspensions of synovial infiltrates. The single cell suspensions were stained with an appropriate combination of mAbs and analyzed by FACS. The mAbs used were: CD138-PE, B220-PerCP or -APC-cy7, FAS-PE, CD19-PerCP or -APC, CD21-FITC or -APC, CD43-APC, CD23-PE-cy7, CD8a-PE, CD25-APC-cy7, CXCR5-biotin, GL7-FITC, CD45.2-FITC, CD27-FITC, Ki-67-FITC, Gr-1-FITC, CD4-FITC or -APC-cy7, phospho-Syk-PE, CD11b-PE or -PerCP, PD-1-APC, CD44-APC-cy7, and F4/80-PerCP mAbs (all from BD Biosciences, eBioscience or Biolegend). Streptavidin-PerCP was purchased from BD Biosciences.
Splenic CD19^+ B cells from NZB/W mice were sorted by MACS, and lysed with Trizol reagent (Invitrogen) followed by standard methods of total RNA purification. The RNA was assayed by RT and quantitative PCR as described. […]

Data set [4] concerns human primary B cells. Briefly: IgM, IgG and IL-6 secretion by stimulated human primary B cells (ELISA). In kind it is cell-based. The following applies: human primary B cells. How it is done:
Human CD19^+ B cells (Lonza) were pre-treated with inhibitors for 1 h and stimulated for 24 h with 50 nM CpG ODN 2006 plus 10 ng/ml IL-2 or 1 μM CpG ODN 2006 plus 20 ng/ml IFN-α. Culture supernatants were assayed by ELISA to detect secreted IgG, IgM, and IL-6, according to the manufacturer’s instructions.
Figure 2: in vitro effects of SKI-O -703 on the proliferation, survival, and differentiation of B cells. Mouse primary B cells were labeled with CP670, and stimulated with either anti-IgM mAb, CD40L and IL-4 (A) or LPS (B) for 72 h in the presence or absence of SKI-O-703 and tofacitinib at the indicated concentrations; they were then assayed by FACS. (C and D) Mouse primary B cells were cultured as in A and B for 24 h, stained with Annexin V and 7-AAD, and assayed by FACS. Representative FACS profiles and graphs displaying mean Annexin V-positivity are shown. (E) Human primary B cells were stimulated with CpG ODN plus IL-2 (to detect IgM and IgG) or CpG ODN 2006 plus IFN-α (to detect IL-6) in the presence or absence of inhibitors. The culture supernatants were assayed by ELISA. Graphs are expressed as % positivity relative to the controls (without inhibitor). The data are representative of 2–3 independent experiments. *P < 0.05, **P < 0.01, and ***P < 0.001, compared with vehicle control by two-tailed unpaired Students t-tests.
(ELISA stands for enzyme-linked immunosorbent assay.)

What is called IC50 is the concentration that gives 50% inhibition. A high value points to weaker potency in that assay. In data set [1], `COc1cc(Nc2ncc(F)c(Nc3ccc4c(n3)NC(=O)C(C)(C)O4)n2)cc(OC)c1OC` [R406, reference compound] registered an IC50 of 18.8 nM.

Take `C[C@@H]1CCN(C(=O)CC#N)C[C@@H]1N(C)c1ncnc2[nH]ccc12` [tofacitinib, reference compound]: the “Proliferation and death of primary B and T cells” value in data set [2] was “did not significantly inhibit”. In data set [3] (18-34 weeks of age), the Body weights result was “reduced both body weights and spleen weights”; the Spleen weights result was “reduced both body weights and spleen weights”. Further, the “Serum anti-dsDNA IgG Ab titer” value in data set [3] (trend to reduction at 26 and 30 weeks of age) is “did not reach statistical significance”. Also, the IL-6 production entry in data set [4] (CpG ODN 2006 plus IFN-α) is on record as “even increased IL-6 production”. In addition, in data set [4] (CpG ODN plus IL-2), the Ab production result was “minimal effect”.
